In US20220378043A1, “BIOFILM TREATMENT AGENT AND BIOFILM TREATMENT METHOD” (SEIKO PMC CORPORATION, priority 2019, published 2022):
Converted amounts (≈) assume the structure as drawn. Read-outs that look alike come from different tables or passages of the source. Residues, ends and D or L forms follow the SMILES beside them.

How the values were obtained:
[1] = test system: Pseudomonas aeruginosa (deposit number: NBRC106052 strain); assay: Minimum inhibitory concentration (MIC) test; assay type: cell-based
Method: A compound (hereinafter, sometimes referred to as a substance to be evaluated) that is a component of a biofilm treatment agent is diluted stepwise with a bouillon medium for testing susceptibility to prepare a total amount of 10 mL of dilution series (with the proviso of being 1.1 times the target concentration). 20 μL of a bacterial suspension which has been prepared such that there is 10^8 cfu/mL of Pseudomonas aeruginosa (deposit number: NBRC106052 strain) which is a representative strain of biofilm-forming bacteria as a test bacterial strain is added thereto and subjected to shaking culture (2000 rpm) with a 96-well microplate mixer at 37° C. for 24 hours. The lowest concentration in the dilution series which is not visually turbid is regarded as the MIC.
Pseudomonad (gram-negative bacterium) known as a model bacterium forming a biofilm was used as a test bacterium to MIC's of compounds (hereinafter, substances to be evaluated) that are components of a biofilm treatment agent.
(1) Test Bacterium Pseudomonas aeruginosa (Deposit Number: NBRC106052 Strain)
Each substance to be evaluated was diluted stepwise with a bouillon medium for testing susceptibility to prepare a total amount of 10 mL of dilution series (with the proviso of being 1.1 times the target concentration). 20 μL of a bacterial suspension which had been prepared such that there was 10^8 cfu/mL of a test bacterial strain was added thereto and subjected to shaking culture (2000 rpm) with a 96-well microplate mixer at 37° C. for 24 hours. The lowest concentration in the dilution series which was not visually turbid was regarded as the MIC.

[2] = test system: Pseudomonas aeruginosa (deposit number: NBRC106052 strain) biofilm; assay: Evaluation of biofilm-removing effect (crystal violet staining of pre-formed biofilm); assay type: cell-based; details: Table 4: anthranilic acid analog and/or biosurfactant or synthetic surfactant, each at Table 2 concentration, pH 7.0, 3.5 hours contact
From the text: In the present invention, the biofilm-removing effect is an action of removing biofilms formed by bacteria. Examples of methods for evaluating an effect of removing substances to be evaluated include a method for comparing the amount of biofilm formed after bringing the substance to be evaluated into contact with a biofilm formed through culturing bacteria for a certain period of time with the amount of biofilm (control) formed after the elapse of a certain period of time without the biofilm being brought into contact with the substance to be evaluated. In this case, when the amount of biofilm formed is smaller than that of the control, it can be determined that the substance to be evaluated has a biofilm-removing effect.
(i) A triptic soy broth (TBS, Bacto: manufactured by Difco Laboratories) medium having a final concentration of glucose of 1% is used for Pseudomonas aeruginosa (deposit number: NBRC106052 strain) which is a representative strain of biofilm-forming bacteria to prepare a preculture solution under the condition of 120 rpm.
(ii) The preculture solution of which the turbidity (OD) is adjusted to 0.1 is diluted with a TSB medium so that the final concentration is 0.000005% (v/v), and 2 mL of the diluent is dispensed into a 12-well plate. Here, the following OD (turbidity) is a value which is measured with a spectrophotometer (iMark Microplate Reader: manufactured by Bio-Rad Laboratories, Inc.) at a wavelength of 630 nm in which distilled water is used as a blank.
(iii) Culture is performed under the conditions of 37° C. and 130 rpm for 17 hours to form a biofilm.
(iv) The culture solution in each well is removed and each well is rinsed twice with distilled water.
(v) A substance to be evaluated is added to a medium at an appropriate concentration less than the MIC of the target substance, and the pH of the medium is adjusted to 7.0 with hydrochloric acid or sodium hydroxide. 2 mL of a sterile medium (pH=7.0) is added to each well to be used as a negative control.
(vi) Each well is shaken at the same temperature as that of the preculture for 3.5 hours at 130 rpm, the biofilm is brought into contact with the medium containing the substance to be evaluated, and then, the medium in each well is removed, and each well is rinsed twice with distilled water.
(vii) 2 mL of an aqueous crystal violet solution (0.4 w/v %, 20 w/v % methanol) is added to the biofilm adhering in each well, allowed to stand for 2 minutes, and allowed to stain, and then, the stained biofilm is rinsed three times with distilled water, and the aqueous crystal violet solution which has not been bound to the biofilm is removed.
(viii) 2 mL of ethanol is added to each well and allowed to stand for 1 hour to elute crystal violet from the stained biofilm, and the absorbance is measured. Here, the following absorbance is a value which is measured with a spectrophotometer (iMark Microplate Reader: manufactured by Bio-Rad Laboratories, Inc.) at a wavelength of 595 nm in which distilled water is used as a blank.
(ix) Regarding the absorbance of the negative control and each substance to be evaluated, absorbances measured for 4 wells are taken as an average value, and the removal rate of each biofilm is calculated from the following calculation equation.
Biofilm removal rate (%)={1-(absorbance of substance to be evaluated/absorbance of negative control)}×100
The biofilm-removing effect and the biofilm formation-inhibiting effect of each of the substances to be evaluated shown in Table 1 were confirmed according to the evaluation methods specified in the present invention using each biofilm treatment agent containing each substance to be evaluated as a biofilm treatment agent component. In addition, evaluation results of the biofilm-removing effect and the biofilm formation-inhibiting effect of each aromatic monohydric alcohol alone are shown in […]

[3] = bouillon medium, 37° C., 24 hours, lowest concentration not visually turbid
[4] = Pseudomonas aeruginosa, NBRC106052, 24 h
[5] = Pseudomonas aeruginosa, NBRC106052, bouillon medium, 37° C., 24 hours, lowest concentration not visually turbid, read-out: MIC

Compound	Removal results (removal rate %) [2] [%]	MIC [1, 4] [µg/mL]	MIC [1, 5] [µg/mL]	other results
Rhamnolipid [Comparative Example 8]	24	–	–	MIC [1, 3]: >10,000 ppm
OCCOc1ccccc1 [Example 4, 2-Phenoxyethanol]	–	2500 (≈ 18.1 mM)	–	–
COC(=O)c1ccccc1N [Comparative Example 6, Methyl anthranilate]	33	1250 (≈ 8.27 mM)	–	–
polyoxyethylene lauryl ether [POELE]	–	–	–	MIC [1, 3]: >2,000 ppm
Nc1ccccc1C(=O)O [Comparative Example 7, Anthranilic acid]	20	10000 (≈ 72.9 mM)	–	–
N#CC(Br)(Br)C(N)=O [compound 4, 2,2-dibromo-3-nitrilopropionamide]	–	–	19.5 (≈ 0.0806 mM)	–
Sophorolipid [Comparative Example 10]	36	–	–	MIC [1, 3]: >10,000 ppm
NC(=O)c1ccccc1N [Comparative Example 5, Anthranylamide]	25	–	–	MIC [1, 3]: 5,000 ppm
CC(C)CCCCCCCCC[C@@H]1CC(=O)N[C@@H](CCC(=O)O)C(=O)N[C@@H](CC(C)C)C(=O)N[C@H](CC(C)C)C(=O)N[C@@H](C(C)C)C(=O)N[C@@H](CC(=O)O)C(=O)N[C@H](CC(C)C)C(=O)N[C@@H](CC(C)C)C(=O)O1 [Comparative Example 9, Surfactin] (HELM PEPTIDE1{E.L.[dL].V.D.[dL].L}|CHEM1{[CC(C)CCCCCCCCC[C@H](CC(=O)[*:1])O[*:2]]}$PEPTIDE1,CHEM1,1:R1-1:R1|PEPTIDE1,CHEM1,7:R2-1:R2$$$V2.0)	24	–	10000 (≈ 9.65 mM)	–
CC(O)c1ccccc1 (stereo not drawn) [Example 2, 1-Phenylethanol]	–	5000 (≈ 40.9 mM)	–	–
OCC(CO)c1ccccc1 [compound 2, 2-Phenyl-1,3-propanediol]	–	–	> 5000	–
OCc1ccccc1 [Example 1, 1-Phenylmethanol]	–	–	2500 (≈ 23.1 mM)	–
OCCCOc1ccccc1 [Example 5, 3-Phenoxy-1-propanol]	–	2500 (≈ 16.4 mM)	–	–
OCC=Cc1ccccc1 [Example 6, Cinnamyl alcohol]	–	–	2500 (≈ 18.6 mM)	–
OCCc1ccccc1 [Example 3, 2-Phenylethanol]	–	–	5000 (≈ 40.9 mM)	–
OCC(O)COc1ccccc1 (stereo not drawn) [compound 3, 3-Phenoxy-1,2-propanediol]	–	> 5000	–	–
CCCCCCCCCCCCOS(=O)(=O)[O-].[Na+] [SDS, sodium dodecyl sulfate]	–	–	2000	–
CCCCCO [Comparative Example 1, 1-Pentanol]	–	–	> 5000	–
